Molecule `NS(=O)(=O)c1ccc(-c2cnn(Cc3cc(F)c(F)cc3F)c(=O)c2-c2ccc(F)cc2)cc1` has a melting point of 236 to 238 °C.
For `O=C1C=C(NC(=O)C(=O)c2cn(Cc3ccc(Cl)cc3)c3ccc([N+](=O)[O-])cc23)CO1`, the melting point was 248 to 250 °C.
`OC[C@@H](O)[C@@H]1OC[C@H](O)[C@H]1O` (racemic) gave a melting point of 69.5 to 71 °C.
With `Cc1c(-c2cnc(N(C)C)nc2)ssc1=S` the melting point was 135 °C.
Work on `O=C(NCCc1ccccn1)c1ccc2cc(C(=O)N3CC(CCl)c4ccc([N+](=O)[O-])cc43)[nH]c2c1` (stereo not drawn) yielded a melting point of 204 to 207 °C.
`CC1(C#CC2(C(F)(F)F)c3cc(Cl)ccc3NC(=O)N2C2CC2)CC1` (stereo not drawn) gave a melting point of 218 to 220 °C.
Work on `COc1ccc2c(c1)C(=O)c1c-2n(CCCCl)c(=O)c2ccccc12` yielded a melting point of 195 to 198 °C.
Molecule `CC(C)COC(=O)N1CCC(c2ccc3oc(-c4ccc(S(C)(=O)=O)cc4F)nc3c2)CC1` has a melting point of 169 to 173 °C.
With `O=C(O)c1cccc(-c2nc(-c3ccc(Cl)cc3)cs2)c1` the melting point was 265 to 266 °C.
`Oc1ccc(C(c2ccc(O)cc2)c2ccccc2CN2CCN(c3ccccc3Cl)CC2)cc1` showed a melting point of 149 to 151 °C.
Molecule `COCc1ccc2c(c1)C=Cc1cc(C)ccc1C2c1cn(Cc2nc(C(=O)O)cs2)c(=O)[nH]c1=S` (stereo not drawn) has a melting point of 140 °C.
`COc1cc(CN2CCN(C(=O)c3ccc4c(c3)C(=O)c3ccccc3C4=O)CC2)cc(OC)c1OC` gave a melting point of 158 to 160 °C.
For `CCCCCCCCCCCCCc1c(C(=O)O)sc2c(Br)csc12`, the melting point was 88 to 90 °C.
Molecule `O=CN(O)C1(CS(=O)(=O)c2ccc(Oc3ccc(OC(F)(F)F)cc3)cc2)CCC2(CC1)OCCO2` has a melting point of 133 to 134 °C.
In the case of `CN1CCN(S(=O)(=O)c2cccc(NC(=O)c3cnn4c(C(F)(F)F)cc(-c5ccc(Cl)cc5)nc34)c2)CC1`, the melting point is reported as 195 °C.
`CCCOC(=N)c1sc2ccccc2c1O` showed a melting point of 185 °C.
In the case of `O=C(c1ccc(F)cc1)N1CC2CC2(c2ccccc2)C1` (stereo not drawn), the melting point is reported as 101 to 103 °C.
With `CCOC(=O)C1N=C(c2ccccc2)c2cc(Cl)ccc2NC1=O` (stereo not drawn) the melting point was 244 °C.
Work on `O=c1[nH]c2cc(N3CCCC3)c(F)cc2c(=O)n1OCc1ccccc1` yielded a melting point of over 250 °C.
For `CC(C)(C)c1cc(CC(O)=S)cc(C(C)(C)C)c1O`, the melting point was 130 °C.
Work on `Cc1cc(=O)c(OCc2ccccc2)c(CO)o1` yielded a melting point of 115 to 116 °C.
With `Fc1cccc(F)c1-c1ncc(-c2ccc(Br)cc2)nn1` the melting point was 180 to 181 °C.
Work on `CCCCc1nc2c(c(C)c(C)n3nnnc23)n1CC(C)(C)NC(=O)NC1CCCCC1` yielded a melting point of 194 to 197 °C.
Molecule `N#Cc1ccc2c(c1)CC[C@@H](c1ccc(F)cc1)[C@H]2Cn1cncn1` (relative stereo) has a melting point of 149 °C.
With `Nc1cc(Oc2ccc(NC(=O)Nc3ccc(Cl)c(C(F)(F)F)c3)cc2)ncn1` the melting point was 197 to 198 °C.
Work on `Cc1ccc(N2CCN(Cc3cnc(N)nc3N)CC2)cc1` yielded a melting point of 248 to 250 °C.
Work on `CC(C)N1C(=O)C2Cc3nc[nH]c3CN2C1=O` (stereo not drawn) yielded a melting point of 149 to 157 °C.
Work on `O=c1n(-c2ccc(N3CCNCC3)cc2)cnn1CC(F)(F)C(F)F` yielded a melting point of 155 to 157 °C.
For `OC1(Cl)C=CC=CC1(O)Cl` (stereo not drawn), the melting point was 113 to 114 °C.
For `CCN1c2ncccc2C(=O)N(C)c2ccc(-c3cc[nH]c3C(C)=O)nc21`, the melting point was over 80 °C.
Molecule `CCOc1ccc(CC2(C)CNCCN2Cc2ccccc2)cc1OCC` (stereo not drawn) has a melting point of 94 to 96 °C.
For `N=c1[nH]ccn1Cc1ccc(Cl)nc1`, the melting point was 188 °C.
For `COC(=O)c1sc(C)c(Cl)c1O`, the melting point was 105 to 107 °C.
With `Cc1ccc(-c2[nH]nc(COCCCO[N+](=O)[O-])c2-c2ccc(S(N)(=O)=O)cc2)cc1` the melting point was 62 °C.
For `CCn1nc(C2CC2)c(C(=O)O)c1Cc1ccc(-c2ccccc2-c2nnn[nH]2)cc1`, the melting point was 227 to 229 °C.
In the case of `COC(=O)C(CCSC)NC(=O)c1ccc([N+](=O)[O-])cc1-c1ccccc1` (stereo not drawn), the melting point is reported as 98 to 101 °C.
Molecule `O=[N+]([O-])c1c(C(F)(F)F)cc(OCc2ccccc2)cc1C(F)(F)F` has a melting point of 141 to 143 °C.
Molecule `CC(=O)Nc1cc(C(C)(C)C)c(SC2=C(O)CC(CCc3ccc(O)cc3)(C3CCCC3)OC2=O)cc1C` (racemic) has a melting point of 181 °C.
With `CS(=O)(=O)c1ccc(Cn2ccc(OCc3ccc(F)cc3F)c(Cl)c2=O)cc1` the melting point was 223 to 225 °C.
For `COCC1(C)CCCSc2cc(C#Cc3ccc(C(=O)O)cc3)ccc21` (stereo not drawn), the melting point was 182 to 183 °C.
`Cc1cccc(-c2n[nH]cc2-c2ccc(F)c(-c3ccc(S(N)(=O)=O)c(F)c3)c2)n1` showed a melting point of 119 to 121 °C.
Work on `CCOC(=O)c1cccc2nc(C)n(Cc3ccc(-c4ccccc4-c4nnn[nH]4)cc3)c12` yielded a melting point of 205 to 206 °C.
With `Clc1c(-c2cnco2)[nH]c2ccccc12` the melting point was 131 to 134 °C.
`O=C(Nc1ccc(F)nc1)c1cccc(-c2cccc3oc(Cc4cccc(C(F)(F)F)c4)cc23)c1` gave a melting point of 117 to 118 °C.
`Cc1cc(SC(=O)N(C)C)c(C(C)(C)C)cc1CO` showed a melting point of 136 °C.
`Cc1cccc(C)c1NC(=O)CN1CCN(CCC(c2ccc(F)cc2)c2ccc(F)cc2)C(C(N)=O)C1` (stereo not drawn) gave a melting point of 143 °C.
With `CCC(CC)Sc1cc2c(cc1Cl)N=C(CCl)NS2(=O)=O` the melting point was 213 to 214 °C.
`O=C(c1ccc(Br)cc1)N1CC(=O)N2CCc3ccccc3C2C1` (stereo not drawn) showed a melting point of 204 to 206 °C.
`O=C1CN(c2ccc(CC3NC(=O)c4ccccc4NC3=O)cc2O)S(=O)(=O)N1` (stereo not drawn) gave a melting point of 180 °C.
Molecule `CC[C@H](C)[C@H](NC(=O)[C@H](Cc1ccc(O)cc1)NC(=O)OC(C)(C)C)C(=O)NCCCBr` has a melting point of 96 to 100 °C.
Molecule `Cc1cn(Cc2ccccc2)c(=O)n(CC2(CO)CC2)c1=O` has a melting point of 81.5 °C.
`NC(=O)Cc1cccc(C(=O)c2ccc(Cl)cc2)c1N` gave a melting point of 212 to 215 °C.
Work on `C#Cc1cccc(Nc2ncnc3c2ccn3CCOCCOC)c1` yielded a melting point of 240 to 241 °C.
For `N#Cc1ccccc1N1CCN(Cc2cn3cc(Cl)ccc3n2)CC1`, the melting point was 167 to 169 °C.
In the case of `O=c1c2c(n(-c3ccccc3)c3ncccc13)OCC2`, the melting point is reported as 245 to 247 °C.
`N#Cc1ccc(-c2ccc(OS(N)(=O)=O)c(Cl)c2)cc1Cn1cncn1` showed a melting point of 155 to 158 °C.
With `O=C(O)c1ccc2c(c1)C(=C(Cl)Cl)OC(=C(Cl)Cl)O2` the melting point was 199 to 200 °C.
Work on `Cc1ccccc1C=CC(=O)c1c(C)n(CCN2CCOCC2)c2ccccc12` yielded a melting point of 131 to 135 °C.
Molecule `CN1Cc2cc3ccc4c(c3c(-c3ccc5c(c3)OCO5)c2C1=O)OCO4` has a melting point of 242 to 244 °C.
`CC(C)C(=O)Nc1ccc2oc3c(c2c1)CCCC3` showed a melting point of 206 to 208 °C.
`CC(C)(C)OC(=O)C(=NOC(C)(C)C(=O)OCC[Si](C)(C)C)c1csc(N)n1` showed a melting point of 83 °C.
`C=C1CCCN(Cc2ccc(OC)cc2)C1=O` gave a melting point of 145 to 155 °C.
Work on `CNCC(O)(Cn1cncn1)c1ccc(Cl)cc1Cl` (stereo not drawn) yielded a melting point of 98 to 101 °C.
`O=C1CN(N=Cc2ncc(-c3ccc(F)cc3)o2)C(=O)N1` showed a melting point of 281 to 282 °C.
Molecule `N#Cc1ccc2c(c1)Sc1ccccc1CC2` has a melting point of 145 to 147 °C.
With `Fc1ccc(CN2CC=C(c3cc4ccccc4s3)CC2)cc1` the melting point was 142 to 144 °C.
Molecule `CN(C)C(=O)c1cc(Cl)c(N)c(Cl)c1` has a melting point of 134 °C.
Work on `CN1C(=O)C2C3C=CC(CCC3)C2(c2ccc(Cl)c(Cl)c2)C1=O` (stereo not drawn) yielded a melting point of 110 to 115 °C.
With `CC(C)OC1OC(=O)CC(C)(C)C1O` (stereo not drawn) the melting point was 50 °C.
`COc1ccc(N2CCOCC2)c2sc(-c3ncc[nH]3)nc12` gave a melting point of 228 to 230 °C.
`COc1cccc(/C=C/c2cccc(C(=O)O)c2)c1` gave a melting point of 195 to 198 °C.
For `COc1ccc(C2COc3cc(O)c(O)cc3C2)cc1` (stereo not drawn), the melting point was 160 °C.
For `O=C1c2ccccc2C(O)N1CCCBr` (stereo not drawn), the melting point was 79 °C.
For `Cc1c(F)c(F)cc2c1c(=O)c(C(=O)O)cn2-c1ccc(F)cc1`, the melting point was 255 to 257 °C.
In the case of `COc1c(OCCCC(=O)O)ccc2c1N=C(C=C(O)c1cccnc1)N1CCN=C21`, the melting point is reported as 257 to 258 °C.
With `CC(C)(NC(=O)OCc1ccccc1)C(=O)NC(c1ccccc1)c1ccccc1` the melting point was 157 to 159 °C.
For `CCOC(=O)CNCc1cc(I)ccc1N`, the melting point was 58 to 61 °C.
`Cc1cc(C)c(Nc2nc(Nc3ccc(C#N)cc3)ncc2N)c(C)c1` showed a melting point of 224 to 225 °C.
Work on `CCOC(=O)c1cc2c3cccc(OC)c3ncn2c1` yielded a melting point of 154 to 155 °C.
Molecule `COC=C(C(=O)OC)c1ccccc1CON=C(C)C(=NOC)c1ccc(CCc2ccc(Cl)cc2Cl)cc1` has a melting point of 112 to 114 °C.
For `O=C(O)c1ccc(OCCCON=Cc2cc3ccccc3n2Cc2ccccc2)c(-c2ccc(C(F)(F)F)cc2)c1`, the melting point was 196 to 197 °C.
`CC(O)=C(C#N)C(=O)Oc1cccc(Cl)c1Cl` showed a melting point of 142 to 146 °C.
`C#Cc1cc(Nc2ncnc3cnc(C)cc23)ccc1F` gave a melting point of 225 °C.
For `Cc1ncc(C(=O)NCc2cc(C(F)(F)F)cc(C(F)(F)F)c2)c(-c2ccccc2)n1`, the melting point was 188 to 190 °C.
Molecule `CC(=O)OC1CSC(Oc2cccc(-c3nccs3)c2)C(OC(C)=O)C1OC(C)=O` (stereo not drawn) has a melting point of 65 °C.
`CCOC(=O)CCCOc1cccc2cc(/C(C)=C/C(=O)N3CCOCC3)oc12` gave a melting point of 90 to 94.8 °C.
For `Clc1nn2cnnc2c2c1C1CCC2CC1`, the melting point was 137 to 140 °C.
`CN1CCC2=C(C=CCC2)C(N)C1=O` (stereo not drawn) gave a melting point of 69 to 81 °C.
Molecule `COC(=O)CCCc1cc2nc(Cl)ccc2n1S(=O)(=O)c1ccc(OC)cc1` has a melting point of 96 °C.
In the case of `COc1ccc(C2CNCc3c2ccc(OC)c3C)cc1OC` (stereo not drawn), the melting point is reported as 128 to 129 °C.
With `Cc1cc(-c2nc3cccnn3c2-c2ccnc(NC(=O)NCC(C)C)c2)ccc1F` the melting point was 213 to 214 °C.
With `Fc1ccc(C(=C(c2ccccc2)C(F)(F)F)c2ccc(OCCN3CCOCC3)cc2)cc1` the melting point was 95 to 96 °C.
With `CC(C#N)c1cccc2c(-c3ccc(Cl)cc3)nccc12` (stereo not drawn) the melting point was 128 to 130 °C.
In the case of `Cc1nccc2c3ccc(OCc4ccccc4)cc3n(Cc3ccccc3)c12`, the melting point is reported as 156 °C.
In the case of `CCOC(=O)Cc1ccc(NC(=O)C(COc2cccnc2)NS(=O)(=O)c2ccc(F)cc2)cc1` (racemic), the melting point is reported as 150 to 152 °C.
In the case of `CCOC(=O)Cc1c(C)n(CCCc2ccccc2)c2cccc(OCc3csc(-c4ccccc4)n3)c12`, the melting point is reported as 90 to 94 °C.
Molecule `C=Cc1cc2c(Cl)cc(F)c(-n3c(=O)cc(C(F)(F)F)n(C)c3=O)c2o1` has a melting point of 108 to 109 °C.
Molecule `Fc1cccc(Nc2cc(-c3ccnc(NC4CCOCC4)n3)ccn2)c1` has a melting point of 190 to 192 °C.

From a melting point compilation (Tetko et al.; mined from patent text by program, amines drawn as free bases though some values may be those of a salt)
